# Source: ChEMBL document CHEMBL1201862, “PubChem BioAssay data set” (2004)
# Activity calls are given as the source filed them.
# Columns and labels:
# [1] = PAX2 cell-based inhibition, dose response, selectivity assay for PAX8 inhibitor project, plate reader, dry powder samples (AID 743048); assay type: functional;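 also: HEK293 cells carrying a WT1 promoter luciferase reporter driven by expressed Pax2; potency is for inhibition of Pax2 driven reporter signal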
# [2] = target: Nonstructural protein 1 (Influenza A virus, UniProt Q194T2); assay type: functional, Influenza A virus (A/California/07/2009(H1N1))
# Sequence of Nonstructural protein 1 (Q194T2 whole entry): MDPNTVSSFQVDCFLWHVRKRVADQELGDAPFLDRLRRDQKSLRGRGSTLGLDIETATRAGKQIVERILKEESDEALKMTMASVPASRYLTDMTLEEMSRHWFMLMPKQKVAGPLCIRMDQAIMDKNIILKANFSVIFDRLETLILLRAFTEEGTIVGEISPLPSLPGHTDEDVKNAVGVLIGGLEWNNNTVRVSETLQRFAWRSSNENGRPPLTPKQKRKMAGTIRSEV
Compound,AC50 [1],IC50 [2]
CCCCC(=O)NC(c1ccccc1)c1ccc2cccnc2c1O (configuration not stated),2.15 µM (active),–
CC(=O)N(Cc1ccc(F)cc1)C1=C(NCCc2ccccc2)C(=O)c2ccccc2C1=O,–,32.2 µM (active)
